Measurements reported in patent publication US6969738B2, “Malic acid diester surfactants” (Air Products and Chemicals, Inc., priority 1999, dated 2005).

Assays:
Type in all cases: physicochemical
[1] = Dynamic surface tension of aqueous solutions, maximum bubble pressure method; conditions: for γ(0.1 wt % solution) (1 b/s) / γ(0.1 wt % solution) (6 b/s) / pC20 / limiting γ (0.1 b/s) / limiting γ (1 b/s) / limiting γ (6 b/s) / limiting γ (20 b/s): 25° C.; for pC20: negative logarithm of molar concentration giving 52.1 dyne/cm at 0.1 b/s; for limiting γ (0.1 b/s) / limiting γ (1 b/s) / limiting γ (6 b/s) / limiting γ (20 b/s): water
From the text: In the following Examples dynamic surface tension data were obtained for aqueous solutions of various compounds using the maximum bubble pressure method at bubble rates from 0.1 bubbles/second (b/s) to 20 b/s. […] In practical terms, high bubble rates correspond to high printing speeds in lithographic printing, high spray or roller velocities in coating applications, and rapid application rates for agricultural products.
(§1) Solutions of the materials of Examples 1-10 in distilled water were prepared. […] The pC20 value is defined as the negative logarithm of the molar concentration of surfactant required to decrease the surface tension of an aqueous solution to […], that is, 20 dyne/cm below that of pure water when the measurement is performed at 0.1 b/s. This value is a measure of the efficiency of a surfactant. […] In addition, the relative efficiency of surfactants can be obtained by comparing surface tension reduction of solutions containing the same amount of different surfactants. Such data is given for 0.1 wt % solutions of the dialkylmalates at 1.0 and 6.0 bubbles/second (b/s). The solubility limit was determined by intersection of the linear portion of a surface tension/In concentration curve with the limiting surface tension as is described in many textbooks. The limiting surface tensions at 0.1, 1, 6 and 20 b/s represent the lowest surface tensions in water which can be achieved at the given surface creation rates for a given surfactant regardless of the amount of surfactant used and is used to evaluate the effectiveness of a surfactant. These values give information about the relative ability of a surfactant to reduce surface defects under near-equilibrium conditions (0.1 b/s) through very dynamic conditions (20 b/s). Lower surface tensions would allow the elimination of defects upon application of a formulation onto lower energy surfaces.

[2] = Solubility limit in water from surface tension/ln concentration curve; conditions: distilled water, 25° C.
Protocol: as §1

[3] = Foam test of 0.1 wt % solutions, procedure based upon ASTM D 1173-53; conditions: 0.1 wt % solution
Protocol: The foaming properties of 0.1 wt % solutions of the dialkylmalate surfactants of this invention were examined using a procedure based upon ASTM D 1173-53. In this test, a 0.1 wt % solution of the surfactant is added from an elevated foam pipette to a foam receiver containing the same solution. The foam height is measured at the completion of the addition (“Initial Foam Height”) and the time required for the foam to dissipate at the air-liquid interface (“Time to 0 Foam”) is recorded. This test provides a comparison between the foaming characteristics of various surfactant solutions. In general, in coatings, inks, adhesives, fountain solutions and agricultural compositions, foam is undesirable because it complicates handling and can lead to coating and print defects, and to inefficient application of agricultural materials.

## CCCCOC(=O)CC(O)C(=O)OCCCC (racemic) [Example 2, Dibutyl-DL-malate]
[1]
  γ(0.1 wt % solution) (1 b/s): 43.8 dyne/cm
  γ(0.1 wt % solution) (6 b/s): 44.8 dyne/cm
  pC20: 3.04
  limiting γ (0.1 b/s): 35.8 Dyne/cm
  limiting γ (1 b/s): 36.0 Dyne/cm
  limiting γ (6 b/s): 36.5 Dyne/cm
[1]; 20 b/s
  limiting γ (20 b/s): 38.6 Dyne/cm
[2]
  solubility limit: 0.3 Weight %
[3]
  initial foam: 0.9 cm
  time to zero foam: 20 s

## CC(C)COC(=O)CC(O)C(=O)OCC(C)C (racemic) [Example 3, Diisobutyl-DL-malate]
[1]
  γ(0.1 wt % solution) (1 b/s): 44.1 dyne/cm
  γ(0.1 wt % solution) (6 b/s): 45.2 dyne/cm
  pC20: 3.08
  limiting γ (0.1 b/s): 33.5 Dyne/cm
  limiting γ (1 b/s): 33.3 Dyne/cm
  limiting γ (6 b/s): 33.4 Dyne/cm
[1]; 20 b/s
  decrease in the limiting surface tension compared to dibutyl-DL-malate: 3.3 dyne/cm
  limiting γ (20 b/s): 35.3 Dyne/cm
[1]; 20 b/s, listed as diisobutyl-DL-malate
  limiting γ (20 b/s): less than 36 Dyne/cm
[2]
  solubility limit: 0.4 Weight %
[3]
  initial foam: 0.6 cm
  time to zero foam: 0.2 s

## CCC(C)OC(=O)CC(O)C(=O)OC(C)CC (racemic) [Example 4, Di-sec-butyl-DL-malate]
[1]
  γ(0.1 wt % solution) (1 b/s): 47.8 dyne/cm
  γ(0.1 wt % solution) (6 b/s): 48.5 dyne/cm
  pC20: 2.77
  limiting γ (0.1 b/s): 36.5 Dyne/cm
  limiting γ (1 b/s): 36.7 Dyne/cm
  limiting γ (6 b/s): 37.3 Dyne/cm
[1]; 20 b/s
  limiting γ (20 b/s): 38.1 Dyne/cm
[2]
  solubility limit: 0.6 Weight %
[3]
  initial foam: 1.0 cm
  time to zero foam: 60 s

## CCCCCOC(=O)CC(O)C(=O)OCCCCC (racemic) [Example 5, Dipentyl-DL-malate]
[1]
  γ(0.1 wt % solution) (1 b/s): 38.2 dyne/cm
  γ(0.1 wt % solution) (6 b/s): 40.5 dyne/cm
  pC20: 3.52
  limiting γ (0.1 b/s): 36.8 Dyne/cm
  limiting γ (1 b/s): 38.2 Dyne/cm
  limiting γ (6 b/s): 40.5 Dyne/cm
[1]; 20 b/s
  limiting γ (20 b/s): 50.1 Dyne/cm
[2]
  solubility limit: 0.03 Weight %
[3]
  initial foam: 0.5 cm
  time to zero foam: 0.2 s

## CC(C)CCOC(=O)CC(O)C(=O)OCCC(C)C (racemic) [Example 6, Diisoamyl-DL-malate]
[1]
  γ(0.1 wt % solution) (1 b/s): 36.8 dyne/cm
  γ(0.1 wt % solution) (6 b/s): 39.5 dyne/cm
  pC20: 3.86
  limiting γ (0.1 b/s): 35.6 Dyne/cm
  limiting γ (1 b/s): 36.8 Dyne/cm
  limiting γ (6 b/s): 39.5 Dyne/cm
[1]; 20 b/s
  limiting γ (20 b/s): 48.0 Dyne/cm
[2]
  solubility limit: 0.04 Weight %
[3]
  initial foam: 0.3 cm
  time to zero foam: 0.3 s

## CCC(C)COC(=O)CC(O)C(=O)OCC(C)CC (racemic) [Example 7, Di(2-methylbutyl)-DL-malate]
[1]
  γ(0.1 wt % solution) (1 b/s): 38.9 dyne/cm
  γ(0.1 wt % solution) (6 b/s): 41.2 dyne/cm
  pC20: 3.47
  limiting γ (0.1 b/s): 37.8 Dyne/cm
  limiting γ (1 b/s): 38.9 Dyne/cm
  limiting γ (6 b/s): 41.2 Dyne/cm
[1]; 20 b/s
  limiting γ (20 b/s): 49.7 Dyne/cm
[2]
  solubility limit: 0.04 Weight %
[3]
  initial foam: 1.2 cm
  time to zero foam: 0.1 s

## CCCCCCOC(=O)CC(O)C(=O)OCCCCCC (racemic) [Example 8, Dihexyl-DL-malate]
[1]
  γ(0.1 wt % solution) (1 b/s): 58.8 dyne/cm
  γ(0.1 wt % solution) (6 b/s): 52.0 dyne/cm
  pC20: 3.25
  limiting γ (0.1 b/s): 55.6 Dyne/cm
  limiting γ (1 b/s): 65.2 Dyne/cm
  limiting γ (6 b/s): 69.3 Dyne/cm
[1]; 20 b/s
  limiting γ (20 b/s): 71.2 Dyne/cm
[2]
  solubility limit: 0.005 Weight %
[3]
  initial foam: 0.5 cm
  time to zero foam: 0.1 s

## CC(C)CC(C)OC(=O)CC(O)C(=O)OC(C)CC(C)C (racemic) [Example 9, Di(4-methyl-2-pentyl)-DL-malate]
[1]
  γ(0.1 wt % solution) (1 b/s): 46.2 dyne/cm
  γ(0.1 wt % solution) (6 b/s): 56.4 dyne/cm
  pC20: 3.84
  limiting γ (0.1 b/s): 40.8 Dyne/cm
  limiting γ (1 b/s): 50.9 Dyne/cm
  limiting γ (6 b/s): 63.9 Dyne/cm
[1]; 20 b/s
  limiting γ (20 b/s): 69.4 Dyne/cm
[2]
  solubility limit: 0.02 Weight %
[3]
  initial foam: 0 cm
  time to zero foam: 0 s

## O=C(CC(O)C(=O)OCc1ccccc1)OCc1ccccc1 (racemic) [Example 10, Dibenzyl-DL-malate]
[1]
  γ(0.1 wt % solution) (1 b/s): 61.5 dyne/cm
  γ(0.1 wt % solution) (6 b/s): 65.2 dyne/cm
  pC20: 2.23
  limiting γ (0.1 b/s): 54.0 Dyne/cm
  limiting γ (1 b/s): 57.7 Dyne/cm
  limiting γ (6 b/s): 60.3 Dyne/cm
[1]; 20 b/s
  limiting γ (20 b/s): 70.0 Dyne/cm
[2]
  solubility limit: 0.08 Weight %
[3]
  initial foam: 0 cm
  time to zero foam: 0 s

## CC(C)OC(=O)C[C@H](O)C(=O)OC(C)C [Example 1, Diisopropyl-(S)-(−)-malate]
[1]
  γ(0.1 wt % solution) (1 b/s): 59.2 dyne/cm
  γ(0.1 wt % solution) (6 b/s): 60.1 dyne/cm
  pC20: 1.83
  limiting γ (0.1 b/s): 33.6 Dyne/cm
  limiting γ (1 b/s): 33.8 Dyne/cm
  limiting γ (6 b/s): 34.0 Dyne/cm
[1]; 20 b/s
  limiting γ (20 b/s): 35.3 Dyne/cm
[1]; 20 b/s, listed as diisopropyl-(S)-(−)-malate
  limiting γ (20 b/s): < 34 Dyne/cm
[2]
  solubility limit: 5 Weight %
[3]
  initial foam: 1.3 cm
  time to zero foam: 14 s
